The text below walks through data of PubChem BioAssay (NCI).

Test systems include A549 NSCLC; HCT-116 colon; HL-60(TB) leukemia; HT29 colon; KM20L2 colon; M19-MEL melanoma; OVCAR-5 ovarian; SF-268 CNS; HS 578T breast; MDA-MB-435.
Holding throughout (test): growth of human tumour cells (NCI), 48 h

Molecules are shown by their SMILES. “And” between values parts separate entries of the source, which are not always exact repeats. Identical values can stand only once.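 These data come from cells grown in 96-well plates and exposed to compound for 48 hours at five concentrations. GI50: concentration for 50% inhibition of growth. TGI marks complete inhibition of growth.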

Take `OCCN1CCN2C=C(C3CCCC4N(CCO)CCN34)CCC21` (configuration not stated): the TGI in the experiment with A549 NSCLC was > 100 µM; in the experiment with HCT-116 colon, > 87.2 µM; in the experiment with HL-60(TB) leukemia, 24 µM; in the experiment with HT29 colon, > 100 µM; in the experiment on KM20L2 colon, > 100 µM; in the experiment on M19-MEL melanoma it was > 100 µM. For the same compound, the TGI with OVCAR-5 ovarian and in the experiment with SF-268 CNS was > 100 µM throughout.
With `NN1C(=O)C(CCO)S/C1=N/N=C1/SC(CCO)C(=O)N1N` (configuration not stated), the TGI with A549 NSCLC, with HCT-116 colon, in the experiment on HL-60(TB) leukemia, in the experiment with HT29 colon, in the experiment with KM20L2 colon and in the experiment on M19-MEL melanoma was > 100 µM each time. The TGI with OVCAR-5 ovarian and with SF-268 CNS was > 100 µM in each case.
As to `N/N=c1\c2ccccc2c2cc3c(cc12)/c(=N/N)c1ccccc13`, the TGI with A549 NSCLC, in the experiment with HCT-116 colon, in the experiment on HL-60(TB) leukemia, with HT29 colon, in the experiment with KM20L2 colon and in the experiment with M19-MEL melanoma was > 100 µM each time. For the same compound, the TGI with OVCAR-5 ovarian and in the experiment with SF-268 CNS was > 100 µM in each case.
`CC#CC1C2CCCC1(CSc1ccccc1)NC(=O)O2` (configuration not stated): the TGI with A549 NSCLC, in the experiment on HCT-116 colon, in the experiment on HL-60(TB) leukemia, with HT29 colon, in the experiment on KM20L2 colon and in the experiment on M19-MEL melanoma was > 100 µM throughout. In addition, the TGI in the experiment on OVCAR-5 ovarian and in the experiment with SF-268 CNS was > 100 µM each time.
On to `CC(=O)[CH-]C(=O)c1ccccc1.CC(=O)[CH-]C(=O)c1ccccc1.C[C@]12CCC(=O)C=C1CC[C@@H]1C2CC[C@@]2(C)C1CC[C@@H]2[O-].C[C@]12CCC(=O)C=C1CC[C@@H]1C2CC[C@@]2(C)C1CC[C@@H]2[O-].Cl.[Ti+4]` (some centres not stated), for which the GI50 is 18.4 µM in the experiment on A549 NSCLC; 27.6 µM in the experiment with HCT-116 colon; 8.82 µM with HL-60(TB) leukemia; 17.5 µM in the experiment on HT29 colon; 13.1 µM with KM20L2 colon; 23.7 µM in the experiment on M19-MEL melanoma. Besides, the GI50 with OVCAR-5 ovarian was 11.8 µM. Also, the TGI in the experiment with A549 NSCLC was 43.9 µM; in the experiment on HCT-116 colon, > 100 µM; in the experiment with HL-60(TB) leukemia, 69.1 µM; in the experiment with HT29 colon it was 37.2 µM; with KM20L2 colon it was 34.1 µM; with M19-MEL melanoma, 96.9 µM. Besides, the TGI with OVCAR-5 ovarian was 55.8 µM.
With `c1ccc2c(c1)N=C(c1cccc3ccccc13)CC(c1ccc3c(c1)OCO3)S2` (configuration not stated), the TGI in the experiment on A549 NSCLC, in the experiment with HCT-116 colon, in the experiment on HL-60(TB) leukemia, in the experiment with HT29 colon, in the experiment with KM20L2 colon and in the experiment on M19-MEL melanoma was > 100 µM throughout. In addition, the TGI in the experiment with OVCAR-5 ovarian and with SF-268 CNS was > 100 µM each time.
On to `O=C(COC(=O)c1cccc2c(=O)c3ccccc3[nH]c12)Nc1ccc(C(=O)O)cc1`, for which the TGI in the experiment on A549 NSCLC, with HCT-116 colon, in the experiment with HL-60(TB) leukemia, in the experiment on HT29 colon, in the experiment on KM20L2 colon and in the experiment with M19-MEL melanoma was > 100 µM throughout. In addition, in the experiment on SF-268 CNS, the TGI is > 100 µM.
As to `COc1ccccc1NC(=O)c1nc2ccc([N+](=O)[O-])cc2nc1C`, the TGI with A549 NSCLC, with HCT-116 colon, in the experiment on HT29 colon, in the experiment with KM20L2 colon, in the experiment on M19-MEL melanoma and in the experiment on OVCAR-5 ovarian was > 100 µM in each case. For the same compound, the TGI in the experiment with SF-268 CNS was > 100 µM.
On to `CCNC(=O)O/N=C1\CCC2[C@@H]3CC=C4C[C@@H](OC5CCCCO5)CC[C@]4(C)C3CC[C@]12C` (some centres not stated), for which the TGI with A549 NSCLC was 64.2 µM; in the experiment with HCT-116 colon, > 100 µM; in the experiment on HT29 colon, 13.3 µM; in the experiment on KM20L2 colon, 12.4 µM; with M19-MEL melanoma it was 3.6 µM; with OVCAR-5 ovarian, 13 µM.
In the case of `NC(N)=N/N=C/c1ccc(-c2ccc(-c3cc(Cl)cc(Cl)c3)s2)cc1`, the GI50 in the experiment with A549 NSCLC was 2.15 µM; in the experiment with HCT-116 colon it was 1.31 µM; in the experiment on HL-60(TB) leukemia it was 1.68 µM; with HS 578T breast, 1.78 µM; in the experiment on HT29 colon, 1.91 µM; with MDA-MB-435, 1.65 µM. The GI50 with OVCAR-5 ovarian is 1.59 µM; with SF-268 CNS, 1.85 µM. The TGI in the experiment on A549 NSCLC was found to be 4.99 µM; with HCT-116 colon, 2.99 µM; with HL-60(TB) leukemia, 3.59 µM; in the experiment on HS 578T breast, 4.05 µM; in the experiment with HT29 colon, 4.81 µM; in the experiment on MDA-MB-435, 3.28 µM. The TGI in the experiment with OVCAR-5 ovarian is 3.02 µM; in the experiment with SF-268 CNS it was 4.22 µM.
As for `Cc1c(O)c2c(c(O)c1Br)C(=O)C=CC2=O`, the GI50 in the experiment on A549 NSCLC was 4.14 µM; in the experiment on HCT-116 colon, 1.01 µM; in the experiment with HT29 colon, 0.602 µM; in the experiment with OVCAR-5 ovarian it was 1.95 µM. Besides, the TGI with A549 NSCLC is 4.47 µM and 29.4 µM; with HCT-116 colon, 0.817 µM and 2.16 µM; with HL-60(TB) leukemia it was 0.113 µM and 0.016 µM; in the experiment on HS 578T breast, 6.34 µM; with HT29 colon it was 1.1 µM and 2.8 µM; in the experiment on MDA-MB-435, 0.451 µM. Moreover, the TGI in the experiment on OVCAR-5 ovarian is 3.19 µM and 3.92 µM; with SF-268 CNS it was 4.63 µM and 6.51 µM.
For `O=C1CCSC2=C1SCc1sccc12`, the TGI with A549 NSCLC, in the experiment with HL-60(TB) leukemia, in the experiment with KM20L2 colon, in the experiment on M19-MEL melanoma, in the experiment on OVCAR-5 ovarian and in the experiment on SF-268 CNS was > 100 µM throughout.
For `COc1ccc(C2C=C(c3ccc4c(c3)OCO4)Oc3c2c(=O)oc2ccccc32)cc1OC` (configuration not stated), the TGI is > 100 µM in the experiment on A549 NSCLC; > 100 µM in the experiment with HCT-116 colon; 0.6 µM in the experiment on HL-60(TB) leukemia; > 100 µM in the experiment with HS 578T breast; > 85.5 µM with HT29 colon; 0.529 µM in the experiment with MDA-MB-435. Also, the TGI in the experiment on OVCAR-5 ovarian and with SF-268 CNS was > 100 µM each time.
Turning to `COc1ccc(Nc2cc(C)nc(NCCCNc3ccnc4cc(Cl)ccc34)n2)cc1`, the GI50 was 1.91 µM with A549 NSCLC; 1.27 µM in the experiment on HCT-116 colon; 2.37 µM in the experiment with HL-60(TB) leukemia; 1.8 µM with HS 578T breast; 1.1 µM in the experiment on HT29 colon; 1.35 µM in the experiment with MDA-MB-435. The GI50 in the experiment on OVCAR-5 ovarian is 2.35 µM; in the experiment on SF-268 CNS, 1.8 µM. The TGI in the experiment with A549 NSCLC was found to be 3.86 µM; in the experiment on HCT-116 colon, 3.82 µM; in the experiment with HL-60(TB) leukemia it was 5.66 µM; with HS 578T breast, 4.39 µM; in the experiment with HT29 colon, 2.67 µM; in the experiment with MDA-MB-435 it was 2.64 µM. The TGI with OVCAR-5 ovarian turned out to be 6.69 µM; with SF-268 CNS it was 3.61 µM.
Turning to `Cc1ccc2c(c1)S(=O)(=O)c1ccc3ccccc3c1N2`, the TGI in the experiment on A549 NSCLC, in the experiment with HCT-116 colon, with HL-60(TB) leukemia, with HS 578T breast, in the experiment on HT29 colon and with MDA-MB-435 was > 100 µM throughout. The TGI in the experiment on OVCAR-5 ovarian and with SF-268 CNS was > 100 µM each time.
For the compound `Nc1cc(=O)n(-c2ccccc2)c(=S)n1-c1ccccc1`, the TGI with A549 NSCLC, in the experiment on HCT-116 colon, in the experiment with HT29 colon, with KM20L2 colon, in the experiment on M19-MEL melanoma and in the experiment with OVCAR-5 ovarian was > 100 µM in each case. Also, the TGI with SF-268 CNS is > 100 µM.
On to `O=C(O)c1ccc(C(=O)O)c(C(=O)Nc2ccc3c(c2)C(=O)c2ccccc2-3)c1`, for which the TGI in the experiment with A549 NSCLC, in the experiment with HCT-116 colon, in the experiment with HL-60(TB) leukemia, with HS 578T breast, in the experiment with HT29 colon and in the experiment on MDA-MB-435 was > 100 µM each time. The TGI with OVCAR-5 ovarian and with SF-268 CNS was > 100 µM in each case.
On to `O=C(Nc1ccc(/C=C/c2ccc(NC(=O)c3cc(S(=O)(=O)O)c4cccnc4c3O)cc2S(=O)(=O)O)c(S(=O)(=O)O)c1)c1cc(S(=O)(=O)O)c2cccnc2c1O`, for which the GI50 with A549 NSCLC is 9.49 µM; in the experiment with HCT-116 colon, 4.54 µM; with HL-60(TB) leukemia, 0.337 µM; with HS 578T breast it was > 53.1 µM; in the experiment on HT29 colon, 32.1 µM; with MDA-MB-435, > 56.7 µM. Further, the GI50 with OVCAR-5 ovarian is > 20.2 µM; with SF-268 CNS it was 7.99 µM. In addition, the TGI with A549 NSCLC is > 56 µM; with HCT-116 colon, > 43.3 µM; with HL-60(TB) leukemia, 3.2 µM; in the experiment with HS 578T breast, > 74.8 µM; in the experiment on HT29 colon it was > 100 µM; with MDA-MB-435, > 74.1 µM. Also, the TGI in the experiment with OVCAR-5 ovarian is > 56.9 µM; in the experiment on SF-268 CNS it was > 100 µM.
For the compound `COc1cc2c(cc1Nc1nc(Nc3cccc(F)c3C(N)=O)c3cc[nH]c3n1)N(C(=O)CN1CCN(C(C)C)CC1)CC2`, the GI50 with A549 NSCLC is 3.48 µM; in the experiment with HCT-116 colon, 3.39 µM; in the experiment on HL-60(TB) leukemia, 1.42 µM; in the experiment with HS 578T breast, 3.76 µM; in the experiment with HT29 colon, 0.685 µM; in the experiment on MDA-MB-435, 3.12 µM. Further, the GI50 was 2.82 µM in the experiment on OVCAR-5 ovarian and 3.98 µM in the experiment on SF-268 CNS. Further, the TGI was 7.19 µM in the experiment on A549 NSCLC; 6.63 µM with HCT-116 colon; 5.6 µM in the experiment on HL-60(TB) leukemia; 10.3 µM in the experiment on HS 578T breast; 4.06 µM in the experiment on HT29 colon; 6.98 µM in the experiment on MDA-MB-435. Besides, the TGI worked out at 7.35 µM in the experiment on OVCAR-5 ovarian and 8.34 µM in the experiment on SF-268 CNS.
